Experimental data: ChEMBL document CHEMBL1132164, “Nonpeptidic HIV protease inhibitors: 6-alkyl-5,6-dihydropyran-2-ones possessing achiral 3-(4-amino/carboxamide-2-t-butyl,5-methylphenyl thio) moiety: antiviral activities and pharmacokinetic properties” (Bioorg Med Chem Lett, 1999)

How the values were obtained:
[1] = system: Human immunodeficiency virus 1; assay: (§1) Tested for antiviral activity against HIV-III B strain infected human lymphocyte derived CEM cells; assay type: functional, organism-based, CCRF-CEM
[2] = molecular target: T1, Human immunodeficiency virus type 1 protease (Human immunodeficiency virus 1, UniProt Q72874); assay: In vitro binding affinity against HIV protease at pH 6.2.
[3] = system: HIV protease; assay: (§2) Therapeutic index for HIV protease was determined; details: read-out: Therapeutic index
[4] = system: CCRF-CEM; assay: Tested for the cytotoxic effect in uninfected human lymphocyte derived CEM cells.; assay type: functional; details: read-out: TC50 (the source's name)
[5] = Area under the curve for the compound is obtained at dose 25 mg/kg; assay type: ADME, organism-based; set-up: dose 25 mg/kg; details: mouse, in vivo
[6] = Maximum concentration obtained in mouse plasma was determined at dose 25 mg/kg; assay type: ADME, organism-based; set-up: dose 25 mg/kg
[7] = Bioavailability was obtained by the comparison of AUC of subcutaneous dosing and AUC of oral dosing in mouse at dose 25 mg/kg; assay type: ADME, organism-based; details: in vivo, read-out: Bioavailabiility
[8] = Half life in mouse plasma at dose 25 mg/kg; assay type: ADME, organism-based; set-up: dose 25 mg/kg
[9] = system: Mus musculus; assay: Time taken for EC90 was determined when tested in mouse at dose 25 mg/kg; assay type: ADME, organism-based; set-up: dose 25 mg/kg; details: in vivo
[10] = molecular target: T1, Human immunodeficiency virus type 1 protease; assay: Binding affinity towards HIV protease was determined
[11] = molecular target: Human immunodeficiency virus type 1 protease (Human immunodeficiency virus 1) (UniProt Q72874); assay: In vitro binding affinity to HIV protease was determined
[12] = as §2
[13] = molecular target: T1, Human immunodeficiency virus type 1 protease; assay: In vitro binding affinity to HIV protease was determined at pH 4.7
[14] = Therapeutic index was determined; details: read-out: TI
[15] = molecular target: T1, Human immunodeficiency virus type 1 protease; assay: In vitro binding affinity against HIV protease at pH 6.2 was determined
[16] = Area under the curve for the compound was obtained when tested in dog; assay type: ADME, organism-based, Canis lupus familiaris; details: in vivo
[17] = Half life in dog plasma was determined at dose 10 mg/kg; assay type: ADME, organism-based, Canis lupus familiaris; set-up: dose 10 mg/kg
[18] = species: Canis familiaris; assay: Time taken for EC90 was determined when tested in dog; assay type: ADME, organism-based, Canis lupus familiaris; details: in vivo
[19] = Bioavailability was obtained by the comparison of AUC of intravenous dosing and AUC of oral dosing in dog; assay type: ADME, organism-based, Canis lupus familiaris; details: in vivo, read-out: Bioavailabiility
[20] = Area under the curve for the compound was obtained when tested in mouse; assay type: ADME, organism-based; details: in vivo
[21] = Maximum concentration obtained in dog plasma was determined; assay type: ADME, organism-based, Canis lupus familiaris
[22] = Bioavailability was obtained by the comparison of AUC of subcutaneous dosing and AUC of oral dosing in mouse; assay type: ADME, organism-based; details: in vivo, read-out: Bioavailabiility
[23] = Half life in mouse plasma was determined at dose 25 mg/kg; assay type: ADME, organism-based; set-up: dose 25 mg/kg
[24] = species: Mus musculus; assay: Time taken for EC90 was determined when tested in mouse; assay type: ADME, organism-based; details: in vivo
[25] = system: CCRF-CEM; assay: as §1; assay type: functional
[26] = Maximum concentration obtained in mouse plasma was determined; assay type: ADME, organism-based
[27] = Human immunodeficiency virus 1, CCRF-CEM

Row | SMILES | EC50 [1, 27] [µM] | IC50 [2] [µM] | selectivity ratio [3] | CC50 [4] [µM] | other results
1 | Cc1cc(SC2=C(O)OC(CCc3ccc(O)cc3)(CC(C)C)CC2=O)c(C(C)(C)C)cc1N (stereo not given) | 8.1 | 0.0135 | 8 | 62 | 
2 | Cc1cc(SC2=C(O)OC(CCc3ccc(O)cc3)(C(C)C)CC2=O)c(C(C)(C)C)cc1N (stereo not given) | 1 | 0.0027 | 92 | 92 | AUC [5]: 44.8 µM·h; Cmax [6]: 21 µM; bioavailability [7]: 59.2%; half-life [8]: 2.1 h; Hours above EC90 [9]: 3.2; Ki [10]: 670 pM; EC90 [11]: 3.5 µM
3 | Cc1cc(SC2=C(O)OC(CCc3ccc(O)cc3)(C(C)C)CC2=O)c(C(C)(C)C)cc1NC(=O)OC(C)(C)C (stereo not given) |  | 0.091 |  |  | 
4 | Cc1cc(SC2=C(O)OC(CCc3ccc(O)cc3)(C(C)C)CC2=O)c(C(C)(C)C)cc1N(C)C (stereo not given) | 1.9 | 0.011 | 36 | 68 | 
5 | Cc1cc(SC2=C(O)OC(CCc3ccc(O)cc3)(C(C)C)CC2=O)c(C(C)(C)C)cc1NC(=O)c1ccncc1 (stereo not given) | 5.1 | 0.00508 | > 20 | > 100 | 
6 | Cc1cc(SC2=C(O)O[C@](CCc3ccc(O)cc3)(C(C)C)CC2=O)c(C(C)(C)C)cc1N (stereo in doubt; 15R) |  |  |  |  | EC50 ([1]; ccrf-cem): 91 µM; Ki [10]: 13000 pM; Therapeutic index [12]: 2
7 | Cc1cc(SC2=C(O)OC(CCc3ccc(O)cc3)(C(C)C)CC2=O)c(C(C)(C)C)cc1NC(=O)CC(C)(C)C (stereo not given) | 16 | 0.06 | 4 | 67 | 
8 | Cc1cc(SC2=C(O)OC(CCc3ccc(O)cc3)(C(C)C)CC2=O)c(C(C)(C)C)cc1NC(=O)c1ccc(C(F)(F)F)cc1 (stereo not given) | 5 | 0.0121 | 5 | 27 | 
9 | Cc1cc(SC2=C(O)OC(CCc3ccc(O)cc3)(C3CC3)CC2=O)c(C(C)(C)C)cc1N (stereo not given) | 2.5 | 0.0041 | 20 | 49 | 
10 | Cc1cc(SC2=C(O)OC(CCc3ccc(O)cc3)(C(C)C)CC2=O)c(C(C)(C)C)cc1NC(=O)c1cccc(C#N)c1 (stereo not given) | 14 | 0.015 | 5 | 66 | 
11 | CCCCC1(CCc2ccc(O)cc2)CC(=O)C(Sc2cc(C)c(N)cc2C(C)(C)C)=C(O)O1 (stereo not given) | 3.7 | 0.0044 | 7 | 25 | 
12 | Cc1cc(SC2=C(O)OC(CCc3ccc(O)cc3)(C(C)C)CC2=O)c(C(C)(C)C)cc1NC(=O)c1ccccn1 (stereo not given) | 1.5 | 0.0061 | 44 | 66 | 
13 | Cc1cc(SC2=C(O)OC(CCc3ccc(O)cc3)(C(C)C)CC2=O)c(C(C)(C)C)cc1NC(=O)c1ccc(C#N)cc1 (stereo not given) | 4.1 | 0.005 | 16 | 66 | 
14 | Cc1ccc(C(C)(C)C)c(SC2=C(O)O[C@](CCc3ccccc3)(c3ccccc3)CC2=O)c1 |  |  |  |  | IC50 [13]: 0.01 µM
15 | Cc1cc(SC2=C(O)OC(CCc3ccc(O)cc3)(C3CCCC3)CC2=O)c(C(C)(C)C)cc1N (stereo not given) | 3.8 | 0.006 | 22 | 82 | 
16 | Cc1cc(SC2=C(O)OC(C)(CCc3ccc(O)cc3)CC2=O)c(C(C)(C)C)cc1O (stereo not given) | > 7 |  | < 1 | 7 | 

Row | SMILES | EC50 [1, 27] [µM] | IC50 [2] [µM] | selectivity ratio [3] | CC50 [4] [µM] | other results
17 | Cc1cc(SC2=C(O)OC(C)(CCc3ccc(O)cc3)CC2=O)c(C(C)(C)C)cc1N (stereo not given) | 9.4 | 0.0096 | 7 | 66 | 
18 | Cc1cc(SC2=C(O)OC(CCc3ccc(N)cc3)(C(C)C)CC2=O)c(C(C)(C)C)cc1N (stereo not given) | 0.9 | 0.0075 | 33 | 30 | 
19 | Cc1cc(SC2=C(O)O[C@](CCc3ccc(N)cc3)(C(C)C)CC2=O)c(C(C)(C)C)cc1CO |  |  |  |  | selectivity ratio [14]: 1050
20 | CCCC1(CCc2ccc(O)cc2)CC(=O)C(Sc2cc(C)c(N)cc2C(C)(C)C)=C(O)O1 (stereo not given) | 4.1 | 0.0038 | 15 | 62 | 
21 | CCCCCC1(CCc2ccc(O)cc2)CC(=O)C(Sc2cc(C)c(N)cc2C(C)(C)C)=C(O)O1 (stereo not given) | > 24 | 0.0077 | < 1 | 24 | 
22 | Cc1cc(SC2=C(O)OC(CCc3ccccc3)(c3ccccc3)CC2=O)c(C(C)(C)C)cc1N (stereo not given) | > 64 | 0.011 | < 1 | 64 | 
23 | Cc1cc(SC2=C(O)OC(CCc3ccccc3)(C(C)C)CC2=O)c(C(C)(C)C)cc1N (stereo not given) | 1.9 | 0.0033 | 36 | 69 | 
24 | Cc1cc(SC2=C(O)O[C@](CCc3ccc(O)cc3)(C(C)C)CC2=O)c(C(C)(C)C)cc1CO | 0.46 |  |  |  | Ki [15]: 90 pM; selectivity ratio [14]: > 200
25 | CC(=O)Nc1cc(C(C)(C)C)c(SC2=C(O)OC(CCc3ccc(O)cc3)(C(C)C)CC2=O)cc1C (stereo not given) | 4.8 | 0.0034 | > 21 | > 100 | 
26 | Cc1cc(SC2=C(O)OC(CCc3ccccc3)(C(C)C)CC2=O)c(C(C)(C)C)cc1NC(=O)c1ccc(C#N)cc1 (stereo not given) | 8.3 | 0.014 | 6 | 46 | 
27 | CC(=O)Nc1cc(C(C)(C)C)c(SC2=C(O)OC(CCc3ccccc3)(C(C)C)CC2=O)cc1C (stereo not given) | 1.8 | 0.0035 | 46 | 83 | 
28 | Cc1cc(SC2=C(O)OC(CCc3ccc(O)cc3)(C(C)C)CC2=O)c(C(C)(C)C)cc1NC(=O)c1cccnc1 (stereo not given) | 4.9 | 0.0051 | > 20 | > 100 | 
29 | Cc1cc(SC2=C(O)OC(CCc3ccc(O)cc3)(C3CCCCC3)CC2=O)c(C(C)(C)C)cc1N (stereo not given) | 10 | 0.02 | 7 | 66 | 
30 | Cc1cc(SC2=C(O)O[C@](CCc3ccc(O)cc3)(C(C)C)CC2=O)c(C(C)(C)C)cc1N (stereo in doubt; 15S) |  |  |  | 211 | AUC [16]: 138 µM·h; half-life [17]: 1.7 h; Hours above EC90 [18]: 8.5; bioavailability [19]: 56%; AUC [20]: 30 µM·h; Cmax [21]: 71 µM; bioavailability [22]: 100%; half-life [23]: 1.2 h; Hours above EC90 [24]: 4; EC50 ([1]; ccrf-cem): 0.5 µM; EC90 [25]: 1 µM; Ki [10]: 70 pM; Therapeutic index [12]: 422; Cmax [26]: 21.7 µM
31 | Cc1cc(SC2=C(O)OC(CCc3ccc(O)cc3)(C(C)C)CC2=O)c(C(C)(C)C)cc1NC(=O)c1ccccc1 (stereo not given) | 5.4 | 0.0132 | 12 | 66 | 
